Experimental data as given in US10913753B2, “Thienopyridine carboxamides as ubiquitin-specific protease inhibitors” (FORMA Therapeutics, Inc., priority 2016, dated 2021).
pIC50: −log10 of the molar value.

Key:
[1] = target: USP28 (Homo sapiens (Human), UniProt Q96RU2); assay: Ubiquitin-Rhodamine 110 Assay for USP28 Activity; format: biochemical
Summary of the method: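 Single-point screen at 10 μM, 90 min; follow-up dose-response (25 μM top, 3-fold) with 75 pM USP28 (1-1077)-TEV-6*His, 30 min compound preincubation, Ub-Rh110 substrate for 20 min at room temperature, citric acid stop. Buffer pH 8.0 Tris; fluorescence 485/535 nm; IC50 by 4-parameter logistic fit of % inhibition.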

[2] = target: USP25 (Homo sapiens (Human), UniProt Q9UHP3); assay: Ubiquitin-Rhodamine 110 Assay for USP25 Activity; format: biochemical
Chain of USP25 (Q9UHP3 whole entry): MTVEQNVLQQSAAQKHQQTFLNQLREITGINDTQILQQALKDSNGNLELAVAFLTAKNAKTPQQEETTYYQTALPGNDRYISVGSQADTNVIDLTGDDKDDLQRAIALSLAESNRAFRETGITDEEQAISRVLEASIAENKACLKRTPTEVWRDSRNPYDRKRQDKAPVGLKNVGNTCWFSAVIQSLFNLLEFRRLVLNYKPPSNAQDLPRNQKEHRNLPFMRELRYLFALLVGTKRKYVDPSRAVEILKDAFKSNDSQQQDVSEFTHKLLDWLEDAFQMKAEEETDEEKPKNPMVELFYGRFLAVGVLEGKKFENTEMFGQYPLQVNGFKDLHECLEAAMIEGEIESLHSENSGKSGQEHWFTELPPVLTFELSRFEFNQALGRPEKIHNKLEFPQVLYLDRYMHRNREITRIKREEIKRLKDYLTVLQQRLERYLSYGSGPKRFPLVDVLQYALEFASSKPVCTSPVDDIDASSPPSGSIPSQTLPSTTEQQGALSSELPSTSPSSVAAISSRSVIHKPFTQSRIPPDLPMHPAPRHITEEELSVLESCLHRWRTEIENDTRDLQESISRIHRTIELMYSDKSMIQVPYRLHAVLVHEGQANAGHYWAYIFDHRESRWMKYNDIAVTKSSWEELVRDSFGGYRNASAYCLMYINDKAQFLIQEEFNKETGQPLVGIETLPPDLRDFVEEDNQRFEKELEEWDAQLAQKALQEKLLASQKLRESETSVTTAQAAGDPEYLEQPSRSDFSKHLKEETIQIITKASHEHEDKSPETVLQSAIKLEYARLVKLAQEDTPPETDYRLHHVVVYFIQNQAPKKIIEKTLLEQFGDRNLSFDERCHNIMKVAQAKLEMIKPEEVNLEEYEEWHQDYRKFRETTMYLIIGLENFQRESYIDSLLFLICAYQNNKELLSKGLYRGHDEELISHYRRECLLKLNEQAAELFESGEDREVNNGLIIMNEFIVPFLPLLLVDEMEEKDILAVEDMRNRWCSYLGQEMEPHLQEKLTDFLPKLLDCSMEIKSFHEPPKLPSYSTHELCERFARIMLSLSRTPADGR
Summary of the method: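 USP25-His6 (75 pM) preincubated 30 min with compound (25 μM to 1.3 nM, 10-point 3-fold), then Ub-Rh110 added; 45 min at room temperature in pH 8.0 Tris buffer with BME, BGG, Triton X-100, stopped with 10 mM citric acid. Fluorescence 485/535 nm; % inhibition vs no-enzyme and DMSO controls, IC50 by 4-parameter logistic fit.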

Chain of USP28 (Q96RU2 whole entry): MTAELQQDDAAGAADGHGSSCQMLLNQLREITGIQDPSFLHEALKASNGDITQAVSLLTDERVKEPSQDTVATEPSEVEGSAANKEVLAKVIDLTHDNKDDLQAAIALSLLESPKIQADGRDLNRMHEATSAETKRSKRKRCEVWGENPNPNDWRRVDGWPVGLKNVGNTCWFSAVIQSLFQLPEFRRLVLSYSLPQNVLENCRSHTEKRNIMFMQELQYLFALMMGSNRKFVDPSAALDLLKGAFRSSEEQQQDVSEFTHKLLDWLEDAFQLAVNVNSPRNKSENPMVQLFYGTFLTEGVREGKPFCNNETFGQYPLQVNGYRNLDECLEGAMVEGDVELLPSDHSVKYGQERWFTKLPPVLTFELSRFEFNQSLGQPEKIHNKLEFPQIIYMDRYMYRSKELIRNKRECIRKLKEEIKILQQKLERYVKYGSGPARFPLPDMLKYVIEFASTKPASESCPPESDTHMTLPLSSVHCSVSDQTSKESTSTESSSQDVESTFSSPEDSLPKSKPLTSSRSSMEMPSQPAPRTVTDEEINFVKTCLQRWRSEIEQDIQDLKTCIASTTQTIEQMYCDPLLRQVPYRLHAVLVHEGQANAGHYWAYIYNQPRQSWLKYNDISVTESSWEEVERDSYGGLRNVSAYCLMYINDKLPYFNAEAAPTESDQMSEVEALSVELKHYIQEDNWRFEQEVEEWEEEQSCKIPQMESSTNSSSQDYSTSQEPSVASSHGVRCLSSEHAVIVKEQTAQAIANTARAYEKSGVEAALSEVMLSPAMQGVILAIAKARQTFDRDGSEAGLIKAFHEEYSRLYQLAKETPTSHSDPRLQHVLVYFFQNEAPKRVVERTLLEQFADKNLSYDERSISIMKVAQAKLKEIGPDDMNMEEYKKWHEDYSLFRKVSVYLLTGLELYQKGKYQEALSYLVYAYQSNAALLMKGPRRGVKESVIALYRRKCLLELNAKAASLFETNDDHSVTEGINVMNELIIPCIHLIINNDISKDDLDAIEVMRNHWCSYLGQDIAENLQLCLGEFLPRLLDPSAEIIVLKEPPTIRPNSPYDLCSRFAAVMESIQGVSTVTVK

Compound	pIC50 [1]	pIC50 [2]
Cc1ccc2c(N)c(C(=O)NCCc3ccc(N4CC5CCC(C4)N5)cc3F)sc2n1 [Compound I-22]	> 6.70	5.70 to 6.70
COCc1cc(N2CCNCC2)ccc1CCNC(=O)c1sc2nc(C)ccc2c1N [Compound I-37]	> 6.70	5.70 to 6.70
Cc1ccc2c(N)c(C(=O)NCCc3cc(F)c(N4CCN[C@@H](C)C4)cc3F)sc2n1 [Compound I-210]	5.70 to 6.70	5.00 to 5.70
Cc1ccc2c(N)c(C(=O)NC[C@H](C)c3ccc(N4CC5CCC(C4)N5)c(F)c3)sc2n1 (single isomer, unassigned) [Example I-106]	5.70 to 6.70	5.00 to 5.70
Cc1ccc2c(N)c(C(=O)NCCc3ccc(N4CCNCC4)c(O)c3)sc2n1 [Example I-182, 3-amino-N-(3-hydroxy-4-(piperazin-1-yl)phenethyl)-6-methylthieno[2,3-b]pyridine-2-carboxamide]	5.70 to 6.70	5.00 to 5.70
Cc1nc2sc(C(=O)NCCc3ccc(N4CCNCC4)cc3)c(N)c2cc1N [Example I-198, 3,5-Diamino-6-methyl-N-(4-(piperazin-1-yl)phenethyl)thieno[2,3-b]pyridine-2-carboxamide]	5.00 to 5.70	4.60 to 5.00
Cc1ccc2c(N)c(C(=O)NCCc3ccc4c(c3)C[C@H](C(=O)O)C4)sc2n1 [Example I-176]	5.70 to 6.70	5.70 to 6.70
Cc1ccc2c(N)c(C(=O)NCCc3ccc(N4CCNCC4)cc3)sc2n1 [Example I-1, 3-Amino-6-methyl-N-(4-(piperazin-1-yl)phenethyl)thieno[2,3-b]pyridine-2-carboxamide]	5.70 to 6.70	5.70 to 6.70
Nc1c(C(=O)NCCc2ccc(N3CCNCC3)c(Cl)c2)sc2nc(C(F)F)ccc12 [Example I-179, 3-Amino-N-(3-chloro-4-(piperazin-1-yl)phenethyl)-6-(difluoromethyl)thieno[2,3-b]pyridine-2-carboxamide]	5.00 to 5.70	5.00 to 5.70
Cc1ccc2c(N)c(C(=O)NCCc3ccc(C4CC5CCC(C4)N5)cc3)sc2n1 (single isomer, unassigned) [Example I-172, N-(4-(8-azabicyclo[3.2.1]octan-3-yl)phenethyl)-3-amino-6-methylthieno[2,3-b]pyridine-2-carboxamide]	> 6.70	> 6.70
CCNc1ccc2c(N)c(C(=O)NCCc3ccc(N4CCNCC4)cc3)sc2n1 [Example I-188]	> 6.70	5.70 to 6.70
Nc1ccc2c(N)c(C(=O)NCCc3ccc(N4CCNCC4)cc3)sc2n1 [Example I-184]	5.70 to 6.70	5.70 to 6.70
CN1CCC(c2ccc(CCNC(=O)c3sc4nc(Cl)ccc4c3N)cc2)CC1 [Compound I-58]	> 6.70	5.70 to 6.70
Cc1ccc2c(N)c(C(=O)NCCc3ccc(O[C@H]4COC5(CNC5)C4)cc3)sc2n1 (single isomer, unassigned) [Example I-219]	5.70 to 6.70	5.70 to 6.70
Cc1ccc2c(N)c(C(=O)NCCc3ccc(CC(=O)O)cc3)sc2n1 [Example I-174]	5.70 to 6.70	5.00 to 5.70
Cc1ccc2c(N)c(C(=O)NCCc3ccc(N4CC5CCC(C4)N5)c(Cl)c3)sc2n1 [Compound I-20]	5.70 to 6.70	5.70 to 6.70
Cc1ccc2c(N)c(C(=O)NCCc3ccc(N4CCN(C5CCC5)CC4)cc3)sc2n1 [Example I-75]	5.70 to 6.70	5.70 to 6.70
Cc1nc2sc(C(=O)NC[C@H](C)c3cc(F)c(N4CCNCC4)cc3F)c(N)c2cc1F [Example I-100]	5.70 to 6.70	5.00 to 5.70
Nc1c(C(=O)NCCc2ccc(C3CCNCC3)cc2)sc2nc(Cl)ccc12 [Compound I-60]	5.70 to 6.70	5.70 to 6.70
COc1ccc2c(N)c(C(=O)NCCc3ccc(N4CCNCC4)cc3)sc2n1 [Example I-190, 3-Amino-6-methoxy-N-(4-(piperazin-1-yl)phenethyl)thieno[2,3-b]pyridine-2-carboxamide]	5.70 to 6.70	5.70 to 6.70
C[C@H](O)c1ccc2c(N)c(C(=O)NCCc3ccc(N4CCNCC4)cc3)sc2n1 (single isomer, unassigned) [Example I-221]	4.60 to 5.00	4.60 to 5.00
Cc1ccc2c(N)c(C(=O)NCCc3ccc(N4CC5CCC(C4)N5)cc3C#N)sc2n1 [Compound I-36]	> 6.70	5.70 to 6.70
